From ChEMBL document CHEMBL1201862, “PubChem BioAssay data set” (2004)
Calls of active or inactive are those of the source.

Legend:
[1] = Vero E6 cell cytotoxicity, dose response, cytotoxicity control for non-replicating M. tuberculosis project, secondary assay (AID 492998); format: functional, VeroE6; conditions: Vero C1008
[2] = HepG2 cell cytotoxicity, dose response, cytotoxicity control for non-replicating M. tuberculosis project (AID 489018); format: functional; conditions: Mycobacterium tuberculosis
[3] = Trypanosoma cruzi growth suppression in host cells – NIH3T3 host cells, beta-gal luminescence, confirmation (AID 2044); format: functional, cell-based;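 note: intracellular parasites grown in NIH/3T3 mouse fibroblasts as host cells; luminescent beta-galactosidase reporter signal from transgenic T. cruzi replicating inside host cells; inhibitors lower the luminescence signal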
[4] = NIH3T3 cell viability loss – ATP luminescence, mouse fibroblasts, counter-screen, dose response (AID 2010); format: functional, cell-based;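 note: cells exposed to compound for about 90 hours before reading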
[5] = THP-1 cell cytotoxicity, dose response, cytotoxicity control for non-replicating M. tuberculosis project (AID 489025); format: functional
[6] = target: Dual specificity protein phosphatase 3 (Homo sapiens, UniProt P51452); experiment: SAR VHR1 Fluorescent Assay for In Vitro dose response studies Set 3. [Related pubchem assays (depositor defined):AID1654, AID1661, AID1878]; format: functional
Dual specificity protein phosphatase 3, sequence (P51452 whole entry): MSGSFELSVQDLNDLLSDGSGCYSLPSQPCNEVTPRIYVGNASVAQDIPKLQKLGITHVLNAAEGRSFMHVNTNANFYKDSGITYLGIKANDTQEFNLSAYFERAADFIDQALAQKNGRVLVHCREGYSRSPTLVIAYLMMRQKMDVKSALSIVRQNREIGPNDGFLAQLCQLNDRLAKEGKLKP

[7] = microbe, parasite or virus in culture; format: functional; conditions: Mycobacterium tuberculosis
[8] = blockade of melanocortin 4 receptor signaling – cell-based, plate reader, cherry pick, counter-screen for LGR2 antagonist project, dose response (AID 743444); format: functional;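 note: transfected HEK 293 cells stimulated with alpha-MSH peptide; potency of inhibitors of the alpha-MSH evoked signal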
[9] = viability loss in HEK293 cells – cell-based, plate reader, cherry-picked samples, cytotoxicity control, dose response (AID 743446); format: functional
[10] = blockers of bursicon-stimulated LGR2 cAMP reporter – cell-based, HEK293, CRE-luciferase reporter, cherry pick, set 2, dose response (AID 743343); format: functional;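 note: transfected cells were stimulated with diluted bursicon conditioned medium after compound addition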
[11] = toxicity toward HepG2 liver cells – cell-based, plate reader, cherry-pick, antagonist series, cytotoxicity control, dose response (AID 743416); format: functional
A-375 = experiment: MITF: Counter assay: A375 proliferation Measured in Cell-Based System Using Plate Reader - 2084-03_Inhibitor_Dose_DryPowder_Activity. [Related pubchem assays (depositor defined):AID488944]; format: functional; conditions: Homo sapiens
[12] = A549 cell cytotoxicity, dose response, cytotoxicity control, plate reader, cherry-pick, antagonist series (AID 743412); format: functional, cell-based
[13] = target: T1, Microphthalmia-associated transcription factor (Homo sapiens, UniProt O75030); experiment: reducers of TRPM1 reporter luminescence, concentration series – cell-based, SK-MEL-5, cherry-picked, set 3, MITF inhibitor project, dose response (AID 493073); format: functional;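 note: SK-MEL-5 melanoma cells with luciferase driven by the MITF target TRPM1 promoter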
T1 sequence (O75030 whole entry): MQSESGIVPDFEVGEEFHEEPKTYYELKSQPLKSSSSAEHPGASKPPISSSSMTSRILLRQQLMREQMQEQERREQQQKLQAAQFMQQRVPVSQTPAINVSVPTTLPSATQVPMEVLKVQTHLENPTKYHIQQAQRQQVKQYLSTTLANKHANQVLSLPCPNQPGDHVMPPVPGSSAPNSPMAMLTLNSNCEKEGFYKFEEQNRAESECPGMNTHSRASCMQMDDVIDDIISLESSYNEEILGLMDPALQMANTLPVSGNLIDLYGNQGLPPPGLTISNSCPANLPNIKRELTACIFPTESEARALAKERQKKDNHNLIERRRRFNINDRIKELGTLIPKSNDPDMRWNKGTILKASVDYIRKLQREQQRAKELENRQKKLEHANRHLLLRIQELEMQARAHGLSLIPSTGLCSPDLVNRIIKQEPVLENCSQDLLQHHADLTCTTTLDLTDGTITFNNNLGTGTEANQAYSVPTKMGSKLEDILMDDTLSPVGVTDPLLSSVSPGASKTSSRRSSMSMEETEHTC

[14] = system: Streptococcus sp. 'group A'; experiment: Streptococcus pyogenes SK(-)GAS viability under kanamycin – luminescence, BacTiterGlo, confirmation, counter-screen for streptokinase expression inhibitor project, dose response (AID 1900); format: functional, organism-based
Escherichia coli = experiment: microbe, parasite or virus in culture
Streptococcus = experiment: GAS UMAA2166 growth inhibition – luminescence, BacTiterGlo, counter-screen for streptokinase expression inhibitor project, dose response (AID 1915); format: functional, organism-based;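 note: potency for reduction of bacterial viability or growth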
Streptokinase A = target: T2, Streptokinase A (Streptococcus pyogenes serotype M1, UniProt P10520); experiment: viability-normalized secreted streptokinase activity reduction – plasminogen activation absorbance, OD405, dose response (AID 1914); format: functional, Streptococcus pyogenes M1 GAS;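 note: secreted streptokinase activity via plasminogen activation per viability signal from cell pellet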
T2 sequence (P10520 whole entry): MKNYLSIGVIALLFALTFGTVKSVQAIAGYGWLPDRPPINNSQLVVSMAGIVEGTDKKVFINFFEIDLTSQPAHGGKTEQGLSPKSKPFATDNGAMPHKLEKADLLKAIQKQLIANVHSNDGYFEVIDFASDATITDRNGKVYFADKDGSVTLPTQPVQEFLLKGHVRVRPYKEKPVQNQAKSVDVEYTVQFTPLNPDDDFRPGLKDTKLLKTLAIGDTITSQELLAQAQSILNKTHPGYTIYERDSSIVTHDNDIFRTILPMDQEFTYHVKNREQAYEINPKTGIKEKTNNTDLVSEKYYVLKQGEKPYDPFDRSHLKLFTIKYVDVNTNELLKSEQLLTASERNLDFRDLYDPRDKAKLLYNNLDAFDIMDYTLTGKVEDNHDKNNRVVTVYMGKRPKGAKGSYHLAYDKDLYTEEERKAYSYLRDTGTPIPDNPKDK

Cytochrome P450 2D6 = Cytochrome P450 2D6 (Homo sapiens, UniProt P10635);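 note: CYP2D6 member of a cytochrome P450 panel assay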
Cytochrome P450 2D6, sequence (P10635 whole entry): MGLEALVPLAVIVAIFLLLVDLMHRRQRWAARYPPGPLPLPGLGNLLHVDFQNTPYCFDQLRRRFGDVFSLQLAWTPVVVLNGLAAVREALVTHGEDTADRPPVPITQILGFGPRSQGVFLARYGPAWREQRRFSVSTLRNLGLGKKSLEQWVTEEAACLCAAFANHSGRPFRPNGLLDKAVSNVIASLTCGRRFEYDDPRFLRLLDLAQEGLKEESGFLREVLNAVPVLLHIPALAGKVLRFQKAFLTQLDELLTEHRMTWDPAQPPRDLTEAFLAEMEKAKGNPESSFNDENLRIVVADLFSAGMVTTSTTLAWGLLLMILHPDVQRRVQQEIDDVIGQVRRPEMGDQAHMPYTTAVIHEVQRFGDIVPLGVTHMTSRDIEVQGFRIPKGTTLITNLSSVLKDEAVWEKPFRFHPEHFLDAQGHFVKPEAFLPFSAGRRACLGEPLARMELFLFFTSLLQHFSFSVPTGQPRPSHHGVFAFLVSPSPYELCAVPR

Cytochrome P450 3A4 = Cytochrome P450 3A4 (Homo sapiens, UniProt P08684);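 note: CYP3A4 tested as one member of a cytochrome P450 panel screen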
Cytochrome P450 3A4, sequence (P08684 whole entry): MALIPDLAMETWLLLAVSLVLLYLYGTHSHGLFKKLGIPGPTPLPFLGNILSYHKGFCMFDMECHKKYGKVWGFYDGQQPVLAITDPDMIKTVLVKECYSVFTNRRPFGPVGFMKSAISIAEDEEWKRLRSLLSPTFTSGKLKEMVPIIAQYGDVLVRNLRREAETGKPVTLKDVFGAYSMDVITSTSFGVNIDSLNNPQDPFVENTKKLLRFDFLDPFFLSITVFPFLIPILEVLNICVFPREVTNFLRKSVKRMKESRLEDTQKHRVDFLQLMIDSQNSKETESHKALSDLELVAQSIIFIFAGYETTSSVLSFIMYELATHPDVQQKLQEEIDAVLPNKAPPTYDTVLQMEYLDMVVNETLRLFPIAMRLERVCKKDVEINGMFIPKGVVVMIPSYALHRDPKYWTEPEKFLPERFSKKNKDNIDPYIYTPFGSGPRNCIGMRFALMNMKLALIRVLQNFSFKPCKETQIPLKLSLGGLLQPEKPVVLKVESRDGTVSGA

Cytochrome P450 2C9 = Cytochrome P450 2C9 (Homo sapiens, UniProt P11712)
Cytochrome P450 2C9, sequence (P11712 whole entry): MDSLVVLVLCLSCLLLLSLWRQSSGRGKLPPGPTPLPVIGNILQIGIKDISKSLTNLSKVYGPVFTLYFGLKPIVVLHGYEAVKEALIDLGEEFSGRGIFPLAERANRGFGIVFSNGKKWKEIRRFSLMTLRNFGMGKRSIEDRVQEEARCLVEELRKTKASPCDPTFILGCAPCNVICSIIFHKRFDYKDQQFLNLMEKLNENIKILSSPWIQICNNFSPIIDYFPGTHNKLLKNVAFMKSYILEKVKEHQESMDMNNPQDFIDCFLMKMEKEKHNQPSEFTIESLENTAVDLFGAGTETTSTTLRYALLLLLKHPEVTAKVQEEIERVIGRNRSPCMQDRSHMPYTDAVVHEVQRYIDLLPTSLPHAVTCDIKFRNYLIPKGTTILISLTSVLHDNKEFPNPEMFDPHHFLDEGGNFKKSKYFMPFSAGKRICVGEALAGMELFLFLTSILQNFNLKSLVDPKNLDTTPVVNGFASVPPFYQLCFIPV

[15] = target: Heat shock cognate 71 kDa protein (Homo sapiens, UniProt P11142); experiment: In Vitro Hsc70 Dose Response Fluorescence Polarization Assay. [Related pubchem assays: 1072 ]
Heat shock cognate 71 kDa protein, sequence (P11142 whole entry): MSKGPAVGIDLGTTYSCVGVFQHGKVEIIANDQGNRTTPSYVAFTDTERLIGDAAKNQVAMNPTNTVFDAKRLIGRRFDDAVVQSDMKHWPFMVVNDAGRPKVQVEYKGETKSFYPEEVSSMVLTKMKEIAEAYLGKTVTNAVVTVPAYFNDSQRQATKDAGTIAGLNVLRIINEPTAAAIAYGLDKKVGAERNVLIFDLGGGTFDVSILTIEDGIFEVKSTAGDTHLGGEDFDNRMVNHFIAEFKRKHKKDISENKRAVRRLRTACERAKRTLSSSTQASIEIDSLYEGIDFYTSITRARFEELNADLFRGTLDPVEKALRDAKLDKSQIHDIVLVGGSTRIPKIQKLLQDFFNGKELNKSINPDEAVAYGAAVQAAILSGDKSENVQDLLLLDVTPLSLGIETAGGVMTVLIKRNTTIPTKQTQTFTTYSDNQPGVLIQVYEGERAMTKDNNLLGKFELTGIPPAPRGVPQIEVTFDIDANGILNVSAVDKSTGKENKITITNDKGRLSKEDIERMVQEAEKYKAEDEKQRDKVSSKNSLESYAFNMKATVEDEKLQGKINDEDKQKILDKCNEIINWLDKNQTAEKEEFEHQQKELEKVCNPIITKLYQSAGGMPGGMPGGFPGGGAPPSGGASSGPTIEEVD

[16] = target: Glyceraldehyde-3-phosphate dehydrogenase (Homo sapiens, UniProt P04406)
Glyceraldehyde-3-phosphate dehydrogenase, sequence (P04406 whole entry): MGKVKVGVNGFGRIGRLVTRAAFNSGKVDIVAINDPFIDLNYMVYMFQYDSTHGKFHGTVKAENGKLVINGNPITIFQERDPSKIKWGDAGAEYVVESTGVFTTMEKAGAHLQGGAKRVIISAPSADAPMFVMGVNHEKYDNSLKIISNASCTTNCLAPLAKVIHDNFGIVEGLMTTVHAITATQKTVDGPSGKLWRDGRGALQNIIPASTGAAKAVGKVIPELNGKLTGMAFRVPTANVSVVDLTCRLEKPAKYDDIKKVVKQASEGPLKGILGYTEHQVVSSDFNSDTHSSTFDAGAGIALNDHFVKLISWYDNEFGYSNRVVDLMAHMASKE

[17] = target: T3, Tyrosine-protein phosphatase non-receptor type 7 (Homo sapiens, UniProt P35236); format: functional
T3 sequence (P35236 whole entry): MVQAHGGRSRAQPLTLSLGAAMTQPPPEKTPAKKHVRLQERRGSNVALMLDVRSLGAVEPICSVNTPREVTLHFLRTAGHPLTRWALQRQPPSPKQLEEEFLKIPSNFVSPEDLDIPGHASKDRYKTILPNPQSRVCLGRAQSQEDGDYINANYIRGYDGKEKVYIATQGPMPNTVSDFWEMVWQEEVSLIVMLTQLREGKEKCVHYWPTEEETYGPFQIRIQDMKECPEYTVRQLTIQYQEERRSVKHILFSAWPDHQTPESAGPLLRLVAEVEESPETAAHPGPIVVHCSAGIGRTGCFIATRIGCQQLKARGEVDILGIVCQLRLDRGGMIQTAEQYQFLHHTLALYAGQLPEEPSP

[18] = target: T4, Dual specificity protein phosphatase 6 (Rattus norvegicus, UniProt Q64346)
T4 sequence (Q64346 whole entry): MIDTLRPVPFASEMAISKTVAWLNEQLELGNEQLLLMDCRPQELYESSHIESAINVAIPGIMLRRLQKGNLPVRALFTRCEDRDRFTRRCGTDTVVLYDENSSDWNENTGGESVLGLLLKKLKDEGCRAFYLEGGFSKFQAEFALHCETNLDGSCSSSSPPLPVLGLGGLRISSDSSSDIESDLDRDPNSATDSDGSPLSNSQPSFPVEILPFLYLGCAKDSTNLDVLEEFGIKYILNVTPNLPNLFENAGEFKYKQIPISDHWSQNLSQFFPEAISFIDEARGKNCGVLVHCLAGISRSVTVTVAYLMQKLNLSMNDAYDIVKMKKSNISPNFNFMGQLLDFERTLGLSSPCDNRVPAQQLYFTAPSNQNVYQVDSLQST

[19] = target: T4, Dual specificity protein phosphatase 6; format: functional
[20] = target: Heat shock 70 kDa protein 1A (Homo sapiens, UniProt P0DMV8); experiment: inhibition of Hsp70 binding activity – biochemical, fluorescence polarization, SAR follow-up (AID 1072)
Heat shock 70 kDa protein 1A, sequence (P0DMV8 whole entry): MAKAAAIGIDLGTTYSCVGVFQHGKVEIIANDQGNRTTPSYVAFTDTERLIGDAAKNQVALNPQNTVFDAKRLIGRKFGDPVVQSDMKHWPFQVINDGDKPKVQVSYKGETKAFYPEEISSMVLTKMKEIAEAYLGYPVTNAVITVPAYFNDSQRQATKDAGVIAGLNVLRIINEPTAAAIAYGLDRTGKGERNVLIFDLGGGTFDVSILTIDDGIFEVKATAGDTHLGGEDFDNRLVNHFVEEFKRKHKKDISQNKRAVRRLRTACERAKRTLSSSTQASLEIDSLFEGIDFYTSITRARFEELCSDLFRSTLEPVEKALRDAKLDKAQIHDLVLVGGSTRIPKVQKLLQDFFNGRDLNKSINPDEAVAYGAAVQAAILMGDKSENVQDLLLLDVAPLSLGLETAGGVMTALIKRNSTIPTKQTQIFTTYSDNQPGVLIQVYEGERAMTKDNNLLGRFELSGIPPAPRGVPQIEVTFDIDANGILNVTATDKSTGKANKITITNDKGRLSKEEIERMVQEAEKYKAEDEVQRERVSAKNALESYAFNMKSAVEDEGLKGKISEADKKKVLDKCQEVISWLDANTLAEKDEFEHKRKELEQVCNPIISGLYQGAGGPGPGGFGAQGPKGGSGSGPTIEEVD

[21] = target: T5, Histone-lysine N-methyltransferase NSD2 (Homo sapiens, UniProt O96028); format: biochemical
T5 sequence (O96028 whole entry): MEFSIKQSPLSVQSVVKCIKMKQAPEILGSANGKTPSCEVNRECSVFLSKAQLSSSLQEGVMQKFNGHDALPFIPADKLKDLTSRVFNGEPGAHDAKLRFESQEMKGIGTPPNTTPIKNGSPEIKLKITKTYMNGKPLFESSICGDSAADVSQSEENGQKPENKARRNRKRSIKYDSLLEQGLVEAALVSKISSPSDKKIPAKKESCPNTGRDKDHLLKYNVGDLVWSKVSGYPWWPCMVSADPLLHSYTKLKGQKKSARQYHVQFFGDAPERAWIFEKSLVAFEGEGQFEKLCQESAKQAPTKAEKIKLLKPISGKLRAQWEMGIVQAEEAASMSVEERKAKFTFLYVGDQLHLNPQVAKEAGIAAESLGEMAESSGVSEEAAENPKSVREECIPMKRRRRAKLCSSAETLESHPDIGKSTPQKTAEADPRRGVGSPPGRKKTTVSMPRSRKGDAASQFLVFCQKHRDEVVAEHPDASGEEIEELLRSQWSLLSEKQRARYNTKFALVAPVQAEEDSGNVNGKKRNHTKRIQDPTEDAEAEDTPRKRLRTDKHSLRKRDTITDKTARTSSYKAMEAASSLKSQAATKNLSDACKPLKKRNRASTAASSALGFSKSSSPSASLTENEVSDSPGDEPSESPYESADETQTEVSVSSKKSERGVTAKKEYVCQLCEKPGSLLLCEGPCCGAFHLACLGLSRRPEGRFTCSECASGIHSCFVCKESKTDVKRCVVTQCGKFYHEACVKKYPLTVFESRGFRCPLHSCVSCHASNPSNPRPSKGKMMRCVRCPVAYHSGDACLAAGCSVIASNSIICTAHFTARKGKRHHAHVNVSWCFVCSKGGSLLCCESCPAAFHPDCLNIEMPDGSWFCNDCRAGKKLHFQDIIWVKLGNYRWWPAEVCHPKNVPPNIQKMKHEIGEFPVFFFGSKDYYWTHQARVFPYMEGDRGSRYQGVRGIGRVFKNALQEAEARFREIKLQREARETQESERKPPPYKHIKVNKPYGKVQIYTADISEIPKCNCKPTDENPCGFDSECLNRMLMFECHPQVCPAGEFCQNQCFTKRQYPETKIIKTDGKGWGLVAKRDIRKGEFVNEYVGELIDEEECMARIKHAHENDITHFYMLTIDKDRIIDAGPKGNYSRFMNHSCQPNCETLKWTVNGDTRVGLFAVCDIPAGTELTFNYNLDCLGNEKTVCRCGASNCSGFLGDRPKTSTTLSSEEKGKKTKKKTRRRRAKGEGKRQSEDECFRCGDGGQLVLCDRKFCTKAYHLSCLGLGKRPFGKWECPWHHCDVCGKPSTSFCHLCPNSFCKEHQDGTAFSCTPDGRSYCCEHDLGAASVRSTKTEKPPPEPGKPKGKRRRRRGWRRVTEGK

CAAX prenyl protease 1 = CAAX prenyl protease 1 (Saccharomyces cerevisiae S288c, UniProt P47154); experiment: yeast CAAX protease Ste24 inhibition – biochemical, S. cerevisiae, plate reader, cherry-pick, dose response (AID 488815)
CAAX prenyl protease 1, sequence (P47154 whole entry): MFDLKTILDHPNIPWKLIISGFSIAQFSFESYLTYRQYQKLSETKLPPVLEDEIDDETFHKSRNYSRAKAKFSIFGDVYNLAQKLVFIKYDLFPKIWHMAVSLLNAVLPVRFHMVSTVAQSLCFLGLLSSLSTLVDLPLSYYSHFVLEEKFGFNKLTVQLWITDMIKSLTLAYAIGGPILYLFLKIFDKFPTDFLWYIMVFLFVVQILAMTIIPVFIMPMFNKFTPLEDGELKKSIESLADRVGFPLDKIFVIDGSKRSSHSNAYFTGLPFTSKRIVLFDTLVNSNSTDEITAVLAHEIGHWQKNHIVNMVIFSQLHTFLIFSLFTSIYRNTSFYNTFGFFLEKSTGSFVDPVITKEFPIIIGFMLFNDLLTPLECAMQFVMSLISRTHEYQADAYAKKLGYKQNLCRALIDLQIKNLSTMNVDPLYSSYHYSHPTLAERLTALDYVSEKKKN

Trypsin = Trypsin (Sus scrofa, UniProt P00761); experiment: trypsin protease activity blockade – biochemical, quenched peptide fluorescence, cherry-pick, selectivity assay for Rce1 protease inhibitor project, dose response (AID 488789)
Trypsin, sequence (P00761 whole entry): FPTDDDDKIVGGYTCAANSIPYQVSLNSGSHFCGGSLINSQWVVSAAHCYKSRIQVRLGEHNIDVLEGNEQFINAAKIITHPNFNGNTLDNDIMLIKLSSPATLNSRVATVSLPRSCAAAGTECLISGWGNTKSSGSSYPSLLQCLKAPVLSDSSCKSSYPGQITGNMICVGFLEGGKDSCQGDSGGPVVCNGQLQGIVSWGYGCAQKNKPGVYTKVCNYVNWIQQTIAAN

**Q.** With COc1cccc2sc(Nc3nnc(-c4cccs4)o3)nc12 as the compound, how does the CC50 [1] read?
**A.** 11.1 µM (active)

**Q.** And the CC50 [2]?
**A.** > 20 µM (active)

**Q.** And the EC50 [3]?
**A.** 0.415 µM (active)

**Q.** What about the EC50 [4] of the same compound?
**A.** 2.96 µM (active)

**Q.** And the CC50 [5]?
**A.** 11.2 µM (active)

**Q.** And the IC50 [6]?
**A.** 15.6 µM (active)

**Q.** And the CC50 [7]?
**A.** 27.8 µM (active)

**Q.** With Cc1ccccc1-c1nc(-c2ccccn2)no1 as the compound, how does the AC50 [8] read?
**A.** 1.8 µM (active)

**Q.** What about the AC50 [9] of the same compound?
**A.** 17.1 µM (active)

**Q.** What about the AC50 [10] of the same compound?
**A.** 1.81 µM (active)

**Q.** And the AC50 [11]?
**A.** 23 µM (active)

**Q.** And the AC50 (A-375)?
**A.** 14.8 µM (active)

**Q.** And the AC50 [12]?
**A.** 12.9 µM (active)

**Q.** And the AC50 [13]?
**A.** 4.18 µM (active)

**Q.** For Cc1ccc(NC(=O)NCc2ccccn2)cc1Cl, which EC50 [14] is on record?
**A.** > 150 µM (not active)

**Q.** And the AC50 (Escherichia coli)?
**A.** 343 µM (active)

**Q.** What about the EC50 (Streptococcus) of the same compound?
**A.** > 150 µM (not active)

**Q.** And the EC50 (Streptokinase A)?
**A.** > 150 µM (not active)

**Q.** For CCSc1nc(O)c2c3c(sc2n1)COC(C)(CC)C3 (stereo not given), which AC50 (Cytochrome P450 2D6) is on record?
**A.** inconclusive

**Q.** What about the AC50 (Cytochrome P450 3A4) of the same compound?
**A.** inconclusive

**Q.** What about the AC50 (Cytochrome P450 2C9) of the same compound?
**A.** 2.82 µM (inconclusive)

**Q.** For CCOc1cc2c(c([N+](=O)[O-])c1)NC(C(=O)O)C1CC=CC21 (stereo not given), which IC50 [15] is on record?
**A.** > 100 µM (not active)

**Q.** What about the IC50 [16] of the same compound?
**A.** > 100 µM (not active)

**Q.** And the IC50 [17]?
**A.** > 100 µM (not active)

**Q.** What about the IC50 [18] of the same compound?
**A.** > 100 µM (inactive)

**Q.** What about the IC50 [19] of the same compound?
**A.** > 100 µM (inactive)

**Q.** And the IC50 [20]?
**A.** > 100 µM (not active)

**Q.** For CCN(CC)CCCNc1cc(C)nc2cc(-c3cccs3)nn12, which AC50 [21] is on record?
**A.** > 20 µM (inactive)

**Q.** And the AC50 (CAAX prenyl protease 1)?
**A.** 6.24 µM (active)

**Q.** What about the AC50 (Trypsin) of the same compound?
**A.** 19.4 µM (active)
